Columns and labels:
[1] = system: histone H3K14 acetylation (HBO1 mediated) in U2OS cells; test: Histone H3 Lysine 14 Acetylation Biomarker Assay (96 well, U2OS); assay type: cell-based; conditions: Table 6, H3K14ac, 24 hours incubation, serum free medium
Procedure: Compounds may be tested for their ability to inhibit acetylation of the histone H3K14 marker (which is HBO1 mediated) in the following assay:
(§1) The cell line U2OS was seeded at a density of 12,000 cells per well in 96 well optical quality tissue culture plates in RPMI medium and 10% foetal bovine serum, and allowed to adhere for 24 hours under standard culture conditions (37 degree Celsius, 5% CO2). At the end of this period the cells were washed with serum free medium. Compound dilutions prepared in DMSO were added to the serum free medium, with negative control wells reserved for treatment with DMSO only and positive controls receiving a potent inhibitor compound (e.g. Example 36 in WO2016/198507) at 10 μM concentration. After incubation for 24 hours, the cells were fixed with 3.7% formaldehyde in PBS for 20 minutes at room temperature, washed with phosphate buffer saline containing 0.1% Tween 20 and blocked with Odyssey blocking buffer (LI-COR, Lincoln, Nebr.) containing 0.1% TritonX100. Anti-H3K14ac specific antibody (Cell Signalling Technologies) in Odyssey blocking buffer containing 0.1% Tween 20 was added and incubated for 14 hours at 4 degree Celsius. After washing, a secondary antibody labelled with Alexa647 dye (LifeTechnologies) and Hoechst 33342 (1 μg/mL, SigmaAldrich) were added for 1 hour incubation. Plates were washed and read on a PerkinElmer Phenix high content imaging platform. Using a Columbus image analysis pipeline, individual nuclei were located by Hoechst 33342 stain and the acetylation level was calculated from the Alexa647-related intensity in the same area. The resulting mean intensity per cell was directly converted to percent inhibition relative to controls on the same plate and the data fitted against a four-parameter logistic model to determine the 50% inhibitory concentration (IC50).

[2] = target: T1, MOF-KAT8 (Homo sapiens, UniProt Q9H7Z6); test: Acetyltransferase biochemical assay (AlphaScreen), KAT8; conditions: Table 4 (MOF-KAT8); 0.4 μM Acetyl coenzyme A, histone H4, 20 nM enzyme
T1 sequence (Q9H7Z6 177-447): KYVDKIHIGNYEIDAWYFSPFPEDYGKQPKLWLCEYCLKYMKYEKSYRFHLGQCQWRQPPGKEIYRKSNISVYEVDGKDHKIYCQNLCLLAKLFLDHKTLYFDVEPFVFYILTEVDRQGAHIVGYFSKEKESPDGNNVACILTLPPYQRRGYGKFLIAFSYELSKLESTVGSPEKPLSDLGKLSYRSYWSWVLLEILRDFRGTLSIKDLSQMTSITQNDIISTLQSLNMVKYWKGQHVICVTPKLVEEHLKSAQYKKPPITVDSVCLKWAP

[3] = target: T2, MOZ-KAT6A (Homo sapiens, UniProt Q92794, A567V); test: Acetyltransferase biochemical assay (AlphaScreen), KAT6A; conditions: Table 2 (MOZ-KAT6A); 10 μM Acetyl coenzyme A, histone H3.1, 5 nM enzyme
T2 construct: encoding amino acid residues 507 to 778 (Uniprot Q92794-1) of human KAT6A; made in house; host or cells: E. coli BL21 DE3

[4] = system: histone H2A.Z Lysine 7 acetylation (TIP60 mediated) in U2OS cells; test: H2A.Z Lysine 7 Acetylation Biomarker Assay (96 well, U2OS); assay type: cell-based; conditions: Table 7, H2A.Z K7ac, 24 hours incubation, serum free medium
Procedure: To discover a global TIP60/KAT5 cellular biomarker useful for monitoring PD responses of TIP60 inhibition in vitro and in vivo, various histone modifications were assessed for TIP60 dependence through genetic (TIP60 siRNA and CRISPR/Cas9) or TIP60 pharmacological inhibition. This analysis clearly identified acetylation of the histone variant H2A.Z at Lysine 7 (H2A.ZK7ac) as a global histone mark which is TIP60-dependent in both human and mouse cells. To a lesser extent, TIP60 also acetylated lysine 4 and 11 of H2A.Z.
Compounds may be tested for their ability to inhibit the histone H2A.Z Lysine 7 acetylation biomarker (which is TIP60 mediated) in the following assay:
as §1, with “of 9,000” for “of 12,000”, “Example 146)” for “Example 36 in WO2016/198507)”, “at 20” for “at 10”, “TritonX100. Anti-H2A.Z K7ac” for “TritonX100. Anti-H3K14ac”, “antibody (Abcam)” for “antibody (Cell Signalling Technologies)”, “33342 (10 μM,” for “33342 (1 μg/mL,”

[5] = target: T3, TIP60-KAT5 (Homo sapiens, UniProt Q92993); test: Acetyltransferase biochemical assay (AlphaScreen), KAT5; conditions: Table 1 (TIP60-KAT5); 0.4 μM Acetyl coenzyme A, histone H4, 10 nM enzyme
T3 construct: encoding amino acid residues 2 to 461 (Uniprot Q92993-2) of human KAT5 isoform; made in house; host or cells: E. coli BL21 DE3

[6] = target: T4, HBO-KAT7 (Homo sapiens, UniProt O95251); test: Acetyltransferase biochemical assay (AlphaScreen), KAT7; conditions: Table 3 (HBO-KAT7); 0.4 μM Acetyl coenzyme A, histone H3.1, 40 nM enzyme
T4 construct: encoding amino acid residues 325 to 611 (Uniprot 095251-1) of human KAT7; made in house; host or cells: E. coli BL21 DE3 RIL

[7] = target: T4, HBO-KAT7; test: Revised Acetyltransferase Biochemical Assay, KAT7; conditions: Table 9 (HBO-KAT7), 1 μM Acetyl coenzyme A
[8] = target: T1, MOF-KAT8; test: Revised Acetyltransferase Biochemical Assay, KAT8
[9] = target: T3, TIP60-KAT5; test: Revised Acetyltransferase Biochemical Assay, KAT5; conditions: 10 nM KAT5, 1 μM AcCoA, 100 nM histone H4, 90 min
[10] = target: T2, MOZ-KAT6A; test: Revised Acetyltransferase Biochemical Assay, KAT6A; conditions: Table 8 (MOZ-KAT6A), 1 μM Acetyl coenzyme A
[11] = target: T5, QKF-KAT6B (Homo sapiens, UniProt Q8WYB5); test: Revised Acetyltransferase Biochemical Assay, KAT6B; conditions: 8 nM KAT6B, 1 μM AcCoA, 100 nM histone H3.1, 90 min
T5 construct: purchased SignalChem K315-381BG
From the text: KAT6B was obtained from SignalChem, catalog ID: K315-381BG

[12] = system: histone H3K23 acetylation (KATE mediated) in U2OS cells; test: Histone H3 Lysine 23 Acetylation Biomarker Assay (U2OS); assay type: cell-based; conditions: Homo sapiens, 96 well, 24 hours incubation
Outline: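 U2OS cells were treated with compound for 24 h, then fixed and immunostained for H3K23ac with Hoechst nuclear counterstain. Per-nucleus Alexa647 intensity was quantified by high-content imaging and converted to % inhibition against DMSO and 10 μM reference-inhibitor controls. IC50 was derived from a four-parameter logistic fit.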

T3 sequence (Q92993 2-461 isoform Q92993-2): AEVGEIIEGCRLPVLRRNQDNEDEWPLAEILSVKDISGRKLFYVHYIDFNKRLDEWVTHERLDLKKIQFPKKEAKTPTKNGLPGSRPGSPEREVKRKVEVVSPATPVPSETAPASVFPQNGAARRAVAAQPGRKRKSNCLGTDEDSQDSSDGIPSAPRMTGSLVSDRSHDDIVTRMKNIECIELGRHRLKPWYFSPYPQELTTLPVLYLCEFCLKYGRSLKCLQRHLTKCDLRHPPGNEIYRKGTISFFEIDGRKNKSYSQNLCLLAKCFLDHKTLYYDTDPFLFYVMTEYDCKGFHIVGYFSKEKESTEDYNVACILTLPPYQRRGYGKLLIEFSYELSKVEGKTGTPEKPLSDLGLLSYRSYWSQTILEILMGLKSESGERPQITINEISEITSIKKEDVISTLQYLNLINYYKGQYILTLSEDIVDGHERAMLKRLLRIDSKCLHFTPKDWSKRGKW
T4 sequence (O95251 with tags, fused parts or gaps): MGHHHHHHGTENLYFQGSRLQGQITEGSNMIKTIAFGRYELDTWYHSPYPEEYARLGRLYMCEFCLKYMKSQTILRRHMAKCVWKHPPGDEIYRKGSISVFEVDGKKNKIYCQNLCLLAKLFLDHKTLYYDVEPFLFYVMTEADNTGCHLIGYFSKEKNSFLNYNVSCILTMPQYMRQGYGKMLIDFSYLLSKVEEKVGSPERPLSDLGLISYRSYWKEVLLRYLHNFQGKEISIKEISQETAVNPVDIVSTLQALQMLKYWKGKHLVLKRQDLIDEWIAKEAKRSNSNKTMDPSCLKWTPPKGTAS
T5 sequence (Q8WYB5 whole entry): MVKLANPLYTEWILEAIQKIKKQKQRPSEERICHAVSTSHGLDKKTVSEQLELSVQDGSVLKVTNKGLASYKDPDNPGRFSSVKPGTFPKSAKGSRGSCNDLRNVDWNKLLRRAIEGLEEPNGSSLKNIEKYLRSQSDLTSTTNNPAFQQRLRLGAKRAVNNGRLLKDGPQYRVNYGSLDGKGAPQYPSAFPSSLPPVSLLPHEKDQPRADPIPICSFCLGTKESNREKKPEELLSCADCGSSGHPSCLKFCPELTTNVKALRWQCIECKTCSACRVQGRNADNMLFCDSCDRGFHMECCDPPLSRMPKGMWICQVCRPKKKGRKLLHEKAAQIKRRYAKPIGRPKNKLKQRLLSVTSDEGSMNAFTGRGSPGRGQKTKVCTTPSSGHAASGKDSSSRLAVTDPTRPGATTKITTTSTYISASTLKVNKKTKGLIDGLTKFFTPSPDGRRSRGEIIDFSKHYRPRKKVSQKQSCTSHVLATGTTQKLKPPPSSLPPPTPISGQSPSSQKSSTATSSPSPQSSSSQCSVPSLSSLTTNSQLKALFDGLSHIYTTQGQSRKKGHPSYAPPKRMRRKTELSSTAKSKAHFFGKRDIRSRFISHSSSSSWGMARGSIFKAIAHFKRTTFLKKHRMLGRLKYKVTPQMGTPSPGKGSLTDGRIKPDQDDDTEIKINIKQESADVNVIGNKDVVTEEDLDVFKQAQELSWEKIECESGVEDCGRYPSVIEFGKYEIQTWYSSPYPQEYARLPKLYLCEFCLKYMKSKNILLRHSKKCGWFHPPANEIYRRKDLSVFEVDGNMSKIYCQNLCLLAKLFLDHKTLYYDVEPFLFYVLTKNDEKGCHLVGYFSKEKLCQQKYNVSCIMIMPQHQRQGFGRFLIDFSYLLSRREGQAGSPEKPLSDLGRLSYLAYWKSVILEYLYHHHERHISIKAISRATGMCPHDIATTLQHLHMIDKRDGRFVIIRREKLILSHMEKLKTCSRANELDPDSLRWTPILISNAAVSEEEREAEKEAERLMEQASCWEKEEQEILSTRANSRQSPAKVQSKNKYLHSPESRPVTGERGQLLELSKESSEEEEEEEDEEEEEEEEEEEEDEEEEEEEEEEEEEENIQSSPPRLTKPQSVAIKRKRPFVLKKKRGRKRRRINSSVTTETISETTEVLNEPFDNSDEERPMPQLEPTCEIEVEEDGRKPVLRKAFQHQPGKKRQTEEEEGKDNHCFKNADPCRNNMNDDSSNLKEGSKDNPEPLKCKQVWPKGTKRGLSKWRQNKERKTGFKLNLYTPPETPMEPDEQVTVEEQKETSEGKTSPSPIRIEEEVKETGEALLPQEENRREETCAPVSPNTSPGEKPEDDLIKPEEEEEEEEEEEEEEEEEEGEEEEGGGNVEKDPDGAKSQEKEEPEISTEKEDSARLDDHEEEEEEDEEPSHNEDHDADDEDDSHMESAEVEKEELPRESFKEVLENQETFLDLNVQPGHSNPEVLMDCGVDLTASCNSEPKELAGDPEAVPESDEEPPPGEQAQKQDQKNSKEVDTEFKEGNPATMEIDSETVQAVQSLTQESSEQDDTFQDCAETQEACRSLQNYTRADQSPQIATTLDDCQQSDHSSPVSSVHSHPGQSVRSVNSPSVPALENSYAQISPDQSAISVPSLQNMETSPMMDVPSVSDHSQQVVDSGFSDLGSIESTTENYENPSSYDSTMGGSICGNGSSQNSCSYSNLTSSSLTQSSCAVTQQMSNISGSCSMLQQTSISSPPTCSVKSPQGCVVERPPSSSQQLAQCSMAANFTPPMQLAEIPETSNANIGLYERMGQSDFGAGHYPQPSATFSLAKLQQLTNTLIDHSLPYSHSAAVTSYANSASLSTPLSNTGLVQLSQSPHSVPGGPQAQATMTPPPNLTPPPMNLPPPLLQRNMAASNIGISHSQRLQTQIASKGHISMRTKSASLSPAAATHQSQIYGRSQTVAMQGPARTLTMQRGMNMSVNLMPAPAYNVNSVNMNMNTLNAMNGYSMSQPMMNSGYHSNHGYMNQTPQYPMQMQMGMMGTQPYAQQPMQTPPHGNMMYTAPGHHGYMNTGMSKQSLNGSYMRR
T2 sequence (Q92794 507-778 A567V limits assumed): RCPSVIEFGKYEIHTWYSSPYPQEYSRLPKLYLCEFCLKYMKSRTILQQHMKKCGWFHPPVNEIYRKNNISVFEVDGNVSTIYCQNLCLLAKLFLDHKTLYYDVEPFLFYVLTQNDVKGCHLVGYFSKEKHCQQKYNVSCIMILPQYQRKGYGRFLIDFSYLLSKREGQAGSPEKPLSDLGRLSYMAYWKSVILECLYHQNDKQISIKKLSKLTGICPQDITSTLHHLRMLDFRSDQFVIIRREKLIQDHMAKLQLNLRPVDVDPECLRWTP

Compound	IC50 [1] [µM]	IC50 [2] [µM]	IC50 [3] [nM]	IC50 ([4]; Homo sapiens) [µM]	IC50 [5] [nM]	IC50 [6] [nM]	IC50 [4] [µM]	IC50 [7] [nM]	IC50 ([8]; read-out: IC50 (MOF-KAT8), Revised acetyltransferase biochemical assay, 20 nM KAT8, 1 μM AcCoA, 100 nM histone H4, 90 min) [µM]	IC50 [9] [nM]	IC50 [10] [nM]	IC50 [8] [µM]	IC50 ([1]; Homo sapiens, 24 h) [µM]	IC50 [11] [nM]	IC50 [12] [µM]
O=C(NCC(c1ccccc1)c1ncco1)C1=Nc2ccc(O)cc2S(=O)(=O)N1 (stereo not shown) [Example 8, 7-Hydroxy-N-(2-(oxazol-2-yl)-2-phenylethyl)-2H-benzo[e][1,2,4]thiadiazine-3-carboxamide 1,1-dioxide]	–	–	–	–	4400	1200	–	134	–	2010	11	10.5	9.68	210	5.87
COC(=O)c1ccccc1CCNC(=O)C1=Nc2ccc(I)cc2S(=O)(=O)N1 [Example 12, Methyl 2-(2-(7-iodo-1,1-dioxido-2H-benzo[e][1,2,4]thiadiazine-3-carboxamido)ethyl)benzoate]	–	–	–	26.8	2620	5870	–	–	–	–	–	–	–	–	–
O=C(NCCc1ccccc1-c1ncco1)C1=Nc2ccc(I)cc2S(=O)(=O)N1 [Example 13, 7-Iodo-N-(2-(oxazol-2-yl)phenethyl)-2H-benzo[e][1,2,4]thiadiazine-3-carboxamide 1,1-dioxide]	–	–	229	5.78	727	981	–	128	–	111	10	36.4	–	–	–
O=C(NCC(c1ccccc1)c1ncco1)C1=Nc2ccc(F)cc2S(=O)(=O)N1 (stereo not shown) [Example 36, 7-fluoro-N-(2-(oxazol-2-yl)-2-phenylethyl)-2H-benzo[e][1,2,4]thiadiazine-3-carboxamide 1,1-dioxide]	–	–	661	–	19600	538	–	3380	–	5470	74	–	9.98	724	0.263
O=C(NCC(c1ccccc1)n1cccn1)C1=Nc2ccc(Br)cc2S(=O)(=O)N1 (stereo not shown) [Example 84]	–	33.3	256	–	778	83.6	–	62	–	426	17	77	0.765	–	–
O=C(NCCc1ccccc1OC(F)(F)F)C1=Nc2ccc(I)cc2S(=O)(=O)N1 [Example 92]	–	21.8	783	–	367	675	–	–	–	–	–	–	1.39	–	–

More lines, now with the values ahead:

IC50 [1] [µM]	IC50 [2] [µM]	IC50 [3] [nM]	IC50 ([4]; Homo sapiens) [µM]	IC50 [5] [nM]	IC50 [6] [nM]	IC50 [4] [µM]	IC50 [7] [nM]	IC50 ([8]; read-out: IC50 (MOF-KAT8), Revised acetyltransferase biochemical assay, 20 nM KAT8, 1 μM AcCoA, 100 nM histone H4, 90 min) [µM]	IC50 [9] [nM]	IC50 [10] [nM]	IC50 [8] [µM]	IC50 ([1]; Homo sapiens, 24 h) [µM]	IC50 [11] [nM]	IC50 [12] [µM]	Compound
2.45	100	107	10	3080	913	–	–	–	–	–	–	–	–	–	O=C(NCC(c1ccccc1)c1ncco1)C1=Nc2ccccc2S(=O)(=O)N1 (single isomer, unassigned) [Example 137]
0.145	8.07	–	–	95.2	234	1.46	–	–	–	–	–	–	–	–	O=C(NCC(c1ccccc1)c1ncco1)C1=Nc2ccc(Br)cc2S(=O)(=O)N1 (single isomer, unassigned) [Example 138]
0.263	19.1	464	–	1300	61.5	5.05	184	75.8	707	100	–	–	–	–	O=C(NCC(c1ccccc1)c1ncco1)C1=Nc2ccc(Br)cc2S(=O)(=O)N1 (single isomer, unassigned) [Example 139]
17.5	56.7	21.1	–	4270	6570	–	–	–	–	–	–	–	–	–	[C-]#[N+]c1ccc2c(c1)S(=O)(=O)NC(C(=O)NCC(c1ccccc1)c1ncco1)=N2 (single isomer, unassigned) [Example 142]
14.6	30	346	–	13800	1750	–	–	–	–	–	–	–	–	–	[C-]#[N+]c1ccc2c(c1)S(=O)(=O)NC(C(=O)NCC(c1ccccc1)c1ncco1)=N2 (single isomer, unassigned) [Example 143]
–	–	2200	–	9200	9590	–	1790	–	2000	98	> 125	30	1780	> 10	O=C(NCCc1ccccc1)C1=Nc2ccc(I)cc2S(=O)(=O)N1 [Example 93]
–	–	10200	30	> 125000	> 125000	–	–	–	–	–	–	30	–	–	COc1cccc(CCNC(=O)C2=Nc3ccc(I)cc3S(=O)(=O)N2)c1 [Example 101]
–	31.2	476	–	423	229	–	–	–	–	–	–	1.06	–	–	O=C(NCCc1ccccc1OC(F)F)C1=Nc2ccc(Br)cc2S(=O)(=O)N1 [Example 115]
–	–	–	10	> 125000	> 125000	–	–	–	–	–	–	–	–	–	O=C(NCC(O)c1cccc(OCc2ccccc2)c1)C1=Nc2ccc(I)cc2S(=O)(=O)N1 (stereo not shown) [Example 122]

From patent US20210380548A1, “Fused [1,2,4]Thiadiazine Derivatives Which Act as KAT Inhibitors of the MYST Family” (CTxT Pty Limited, priority 2017, published 2021)
